Measured values as given in article PMC6979384, “Characterization of the plant homeodomain (PHD) reader family for their histone tail interactions” (Epigenetics & Chromatin, 2020).
“Also recorded” adds a separate entry of the source.

How the values were obtained:
Experiment in all cases: Histone peptide microarray
Format in all cases: binding, human
KDM4C (TTP) = conditions: GST-tagged KDM4C (TTP = Tandem Tudor domain + PHD); sheet Array Heatmap; each array performed twice, total n = 4
Method in brief: (§1)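 GST-PHD reader, 0.5 μM, probed on 293-peptide histone array (single/combinatorial PTMs); optimized array protocol; signal = mean ± SD, n = 4.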

DPF2 (PPC2W2) = conditions: GST-tagged DPF2 (PPC2W2 = Dual PHD + C2W2-type Zn-finger); sheet Array Heatmap; each array performed twice, total n = 4
Method in brief: as §1

BPTF (PB) = conditions: GST-tagged BPTF (PB = PHD + Bromodomain); sheet Array Heatmap; each array performed twice, total n = 4
Method in brief: as §1

PHF23 = conditions: GST-tagged PHF23; sheet Array Heatmap; each array performed twice, total n = 4
Method in brief: as §1

CHD5 (PCC) = conditions: GST-tagged CHD5 (PCC = PHD + Dual Chromodomain); sheet Array Heatmap; each array performed twice, total n = 4
Method in brief: as §1

CHD5 (PPCC) = conditions: GST-tagged CHD5 (PPCC = Dual PHD + Dual Chromodomain); sheet Array Heatmap; each array performed twice, total n = 4
Method in brief: as §1

KDM5B (1) = conditions: GST-tagged KDM5B (1); sheet Array Heatmap; each array performed twice, total n = 4
Method in brief: as §1

BAZ2B = conditions: GST-tagged BAZ2B; sheet Array Heatmap; each array performed twice, total n = 4
Method in brief: as §1

ING3 = conditions: GST-tagged ING3; sheet Array Heatmap; each array performed twice, total n = 4
Method in brief: as §1

PHRF1 (RP) = conditions: for Array Heatmap signal (histone peptide microarray): GST-tagged PHRF1 (RP), sheet Array Heatmap, each array performed twice, total n = 4
Method in brief: as §1

KDM5A (3) = conditions: GST-tagged KDM5A (3); sheet Array Heatmap; each array performed twice, total n = 4
Method in brief: as §1

KDM7A = conditions: GST-tagged KDM7A; sheet Array Heatmap; each array performed twice, total n = 4
Method in brief: as §1

ING5 = conditions: GST-tagged ING5; sheet Array Heatmap; each array performed twice, total n = 4
Method in brief: as §1

AIRE (PP) = conditions: GST-tagged AIRE (PP); sheet Array Heatmap; each array performed twice, total n = 4
Method in brief: as §1

PHF13 = conditions: GST-tagged PHF13; sheet Array Heatmap; each array performed twice, total n = 4
Method in brief: as §1

KDM5A (1) = conditions: GST-tagged KDM5A (1); sheet Array Heatmap; each array performed twice, total n = 4
Method in brief: as §1

ING2 = conditions: GST-tagged ING2; sheet Array Heatmap; each array performed twice, total n = 4
Method in brief: as §1

ING1 = conditions: GST-tagged ING1; sheet Array Heatmap; each array performed twice, total n = 4
Method in brief: as §1

TRIM66 (PB) = conditions: GST-tagged TRIM66 (PB = PHD + Bromodomain); sheet Array Heatmap; each array performed twice, total n = 4
Method in brief: as §1

PHF21A = conditions: GST-tagged PHF21A; sheet Array Heatmap; each array performed twice, total n = 4
Method in brief: as §1

ING4 = conditions: GST-tagged ING4; sheet Array Heatmap; each array performed twice, total n = 4
Method in brief: as §1

KDM5B (3) = conditions: GST-tagged KDM5B (3); sheet Array Heatmap; each array performed twice, total n = 4
Method in brief: as §1

MORC3 (CW) = conditions: GST-tagged MORC3 (CW = CW-type Zn-finger); sheet Array Heatmap; each array performed twice, total n = 4
Method in brief: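 A peptide microarray holding 293 synthetic histone peptides with individual or combinatorial modifications was probed with each GST-PHD protein at 0.5 μM. Values represent mean intensity (±SD) from four replicates.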

CHD4 (PPCC) = conditions: for Array Heatmap signal (histone peptide microarray): GST-tagged CHD4 (PPCC = Dual PHD + Dual Chromodomain), sheet Array Heatmap, each array performed twice, total n = 4
Method in brief: as §1

TAF3 = conditions: GST-tagged TAF3; sheet Array Heatmap; each array performed twice, total n = 4
Method in brief: as §1

PHF8 = conditions: GST-tagged PHF8; sheet Array Heatmap; each array performed twice, total n = 4
Method in brief: as §1

| Substance | Array Heatmap signal (histone peptide microarray) (KDM4C (TTP)) | Array Heatmap signal (histone peptide microarray) (DPF2 (PPC2W2)) | Array Heatmap signal (histone peptide microarray) (BPTF (PB)) | Array Heatmap signal (histone peptide microarray) (PHF23) | Array Heatmap signal (histone peptide microarray) (CHD5 (PCC)) | Array Heatmap signal (histone peptide microarray) (CHD5 (PPCC)) | Array Heatmap signal (histone peptide microarray) (KDM5B (1)) | Array Heatmap signal (histone peptide microarray) (BAZ2B) | Array Heatmap signal (histone peptide microarray) (ING3) | Array Heatmap signal (histone peptide microarray) (PHRF1 (RP)) | Array Heatmap signal (histone peptide microarray) (KDM5A (3)) | Array Heatmap signal (histone peptide microarray) (KDM7A) | Array Heatmap signal (histone peptide microarray) (ING5) | Array Heatmap signal (histone peptide microarray) (AIRE (PP)) | Array Heatmap signal (histone peptide microarray) (PHF13) | Array Heatmap signal (histone peptide microarray) (KDM5A (1)) | Array Heatmap signal (histone peptide microarray) (ING2) | Array Heatmap signal (histone peptide microarray) (ING1) | Array Heatmap signal (histone peptide microarray) (TRIM66 (PB)) | Array Heatmap signal (histone peptide microarray) (PHF21A) | also measured |
| --- | --- | --- | --- | --- | --- | --- | --- | --- | --- | --- | --- | --- | --- | --- | --- | --- | --- | --- | --- | --- | --- |
| H3 (1-20): unmodified H3 N-terminal peptide (1–20) | 0.431 | 0.6767 | 0.3262 | 0.5836 | 0.7444 | 0.5462 | 0.6198 | 0.438 | 0.4575 | 0.67 | 0.4935 | 0.3004 | 0.3305 | 0.4007 | 0.5761 | 0.4331 | 0.5908 | 0.542 | 0.7114 | 0.4449 | binding preference (PHRF1 (RP); peptide microarray, reader 0.5 μM, n = 4, listed as H3K4me0): strong preference for H3K4me0; also recorded: specifically bound H3K4me0 over K4me; Array Heatmap signal (histone peptide microarray) (ING4): 0.425; Array Heatmap signal (histone peptide microarray) (KDM5B (3)): 0.5464; Array Heatmap signal (histone peptide microarray) (MORC3 (CW)): 0.4267; Array Heatmap signal (histone peptide microarray) (CHD4 (PPCC)): 0.5925; relative binding (CHD4 (PPCC); peptide microarray, reader 0.5 μM, n = 4): no difference in binding; Array Heatmap signal (histone peptide microarray) (TAF3): 0.2842; Array Heatmap signal (histone peptide microarray) (PHF8): 0.3331 |
| H3K4me1: H3 1-20 [Peptide H3K4me1] | 0.5341 | 0.7192 | 0.3638 | 0.579 | 0.8603 | 0.5953 | 0.6949 | 0.4995 | 0.5265 | 0.6701 | 0.6222 | 0.37 | 0.3865 | 0.5018 | 0.6545 | 0.4924 | 0.606 | 0.551 | 0.6245 | 0.4917 | Array Heatmap signal (histone peptide microarray) (ING4): 0.4885; Array Heatmap signal (histone peptide microarray) (KDM5B (3)): 0.6104; Array Heatmap signal (histone peptide microarray) (MORC3 (CW)): 0.5834; Array Heatmap signal (histone peptide microarray) (CHD4 (PPCC)): 0.5818; Array Heatmap signal (histone peptide microarray) (TAF3): 0.2998; Array Heatmap signal (histone peptide microarray) (PHF8): 0.3997 |
| H3K4me2: H3 1-20 [Peptide H3K4me2] | 0.5984 | 0.7084 | 0.3788 | 0.6135 | 0.8359 | 0.6021 | 0.6566 | 0.5231 | 0.5315 | 0.5228 | 0.6851 | 0.5271 | 0.3985 | 0.5318 | 0.6844 | 0.5028 | 0.6539 | 0.601 | 0.6781 | 0.4967 | Array Heatmap signal (histone peptide microarray) (ING4): 0.5223; Array Heatmap signal (histone peptide microarray) (KDM5B (3)): 0.6323; Array Heatmap signal (histone peptide microarray) (MORC3 (CW)): 0.6297; Array Heatmap signal (histone peptide microarray) (CHD4 (PPCC)): 0.5852; Array Heatmap signal (histone peptide microarray) (TAF3): 0.3841; Array Heatmap signal (histone peptide microarray) (PHF8): 0.5074 |
